{
  "source": "patent US8198307B2",
  "about": "“Imidazole derivatives having aryl piperidine substituent, method for preparation thereof and pharmaceutical compositions containing same” (Korea Research Institute of Chemical Technology, priority 2007, dated 2012)",
  "data": [
    {"biological_target": "T1, MCH R1 (melanine-concentrating hormone receptor-1) (Homo sapiens, UniProt Q99705)", "T1 construct": "purchased Euroscreen, Gosselies, Belgium", "T1 sequence (Q99705 whole entry, species assumed)": "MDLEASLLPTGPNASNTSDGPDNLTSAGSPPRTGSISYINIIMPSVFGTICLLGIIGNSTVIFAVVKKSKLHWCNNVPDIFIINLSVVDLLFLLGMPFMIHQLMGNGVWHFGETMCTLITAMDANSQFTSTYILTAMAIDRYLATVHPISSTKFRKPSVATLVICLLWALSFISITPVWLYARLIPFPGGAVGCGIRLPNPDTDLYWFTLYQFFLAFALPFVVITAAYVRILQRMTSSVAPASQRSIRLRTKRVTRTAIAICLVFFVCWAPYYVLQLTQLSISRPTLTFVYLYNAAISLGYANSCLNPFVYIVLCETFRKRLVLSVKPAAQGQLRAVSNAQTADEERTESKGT", "experiment": "Inhibitory effects on MCH R1 binding (Eu-MCH time-resolved fluorescence binding assay)", "details": "concentration inhibiting the binding of MCH (Eu-MCH, 2 nM) to MCH R1 by 50% in vitro; TRF readout; test range 1 nM to 10 μM; read-out: IC50", "procedure": "First, MCH R1 (melanine-concentrating hormone receptor-1; Euroscreen, Gosselies, Belgium), 1 μM Europium-labeled melanine-concentrating hormone (Eu-MCH, PerkinElmer, Turku, Finland) and 1 mM melanine-concentrating hormone (MCH, #070-47, Phoenix, Belmont Calif., USA) were kept at 4° C. for ready use. 1 μM Eu-MCH and 1 mM MCH were diluted with an experimental solution (25 mM HEPES pH 7.4, 5 mM MgCl2, 1 mM CaCl2 and 0.5% (w/w) BSA) to 8 nM (final reaction concentration: 2 nM) and 2 μM (final reaction concentration: 0.5 μM), respectively. The compounds prepared in the Examples (“Test compounds”) were dissolved in the experimental solution in concentration of 4 nM to 40 μM (final reaction concentration: 1 nM to 10 μM). MCH R1 (200 assays/vial) was homogeneously dispersed in the experimental solution.\nThen, 100 μl/well of the following reaction mixture was added to the wells of a microplate (Multiwell 96 well filter plates PN5020, Pall Co., Ann Arbor, Mich., USA) equipped with a filter paper, with an 8-channel pipette (multi 8-channel, Eppendorf, Hamburg, Germany). Specifically, to the wells of a non-specific binding control group, 25 μl of Eu-MCH, 50 μl of MCH R1 and 25 μl of MCH were added. Further, 25 μl of the experimental solution supplemented with 10% (w/w) of DMSO, 25 μl of Eu-MCH and 50 μl of MCH R1 were added to the wells of a total binding control group, while 25 μl of the test compounds, 25 μl Eu-MCH and 50 μl of MCH R1 were added to the wells of an experimental group. Subsequently, the microplate was shaken gently for 15 seconds and kept at room temperature for 90 minutes to allow the reaction to take place. Then, the plate was washed with a microplate washer (EMBLA, Molecular Devices) by washing three times with 300 μl of a washing solution (25 mM HEPES pH 7.4, 5 mM MgCl2, 1 mM CaCl2) to remove the residual unreacted Eu-MCH. Moisture was removed from the bottom of the wells and 150 μl of dissociation solution (DELFIA Enhancement solution, PerkinElmer, Turku, Finland) was added to each well, followed by keeping the plate at room temperature for 2 to 4 hours. Subsequently, time-resolved fluorescence (TRF) values were measured with a multilabel counter (Victor2, PerkinElmer, Turku, Finland) (emission wave length: 615 nm, excitation wave length: 340 nm). The inhibition rate based on the time-resolved fluorescence data was calculated using the following Equation (I). Inhibition rate of time-resolved fluorescence (%)=[(Average TRF value of the total binding group−Time-resolved fluorescence value of the test compound)/(Average TRF value of the total binding group−Average TRF value of the non-specific binding group)]×100 (I)", "units": {"IC50": "nM"}, "values": [
      {"molecule": "CCCCc1nc2cc(-c3ccccn3)c(C)nc2n1CCCN1CCC(c2cccc(NC(=O)C(C)C)c2)CC1", "note": "[Example 101, 2-butyl-5-methyl-6-pyridin-2-yl-3-{3-[4-(3-isobutyrylaminophenyl)piperidin-1-yl]propyl}-3H-imidazo[4,5-b]pyridine]", "IC50": 40},
      {"molecule": "CC(=O)Nc1cccc(C2CCN(CCCn3c(-c4cccc(C)c4)nc4ccccc43)CC2)c1", "note": "[Example 79, 2-(m-tolyl)-1-{3-[4-(3-acetylaminophenyl)piperidin-1-yl]propyl}-1H-benzimidazole]", "IC50": 20},
      {"molecule": "CC(=O)Nc1cccc(C2CCN(CCCn3c(-c4ccc(Cl)cc4)nc4cc(C(N)=O)ccc43)CC2)c1", "note": "[Example 60, 2-(4-chlorophenyl)-1-{3-[4-(3-acetylaminophenyl)piperidin-1-yl]propyl}-5-carbamoyl-1H-benzimidazole]", "IC50": 8},
      {"molecule": "CC(=O)Nc1cccc(C2CCN(CCCn3c(-c4ccc(Cl)cc4F)nc4cc(C)c(C)cc43)CC2)c1", "note": "[Example 59, 2-(4-chloro-2-fluorophenyl)-1-{3-[4-(3-acetylaminophenyl)piperidin-1-yl]propyl}-5,6-dimethyl-1H-benzimidazole]", "IC50": 239},
      {"molecule": "CC(=O)Nc1cccc(C2CCN(CCCn3c(-c4ccc(Cl)cc4)nc4ccc(C)cc43)CC2)c1", "note": "[Example 24, 2-(4-chlorophenyl)-1-{3-[4-(3-acetylaminophenyl)piperidin-1-yl]propyl}-6-methyl-1H-benzimidazole]", "IC50": 10},
      {"molecule": "CCCCc1nc2c(C)cc(C)nc2n1CCCN1CCC(c2cccc(NC(C)=O)c2)CC1", "note": "[Example 95, 2-butyl-5,7-dimethyl-3-{3-[4-(3-acetylaminophenyl)piperidin-1-yl]propyl}-3H-imidazo[4,5-b]pyridine]", "IC50": 90},
      {"molecule": "CCCCc1nc2c(C)c(-c3ccccc3)c(C)nc2n1CCCN1CCC(c2cccc(NC(C)=O)c2)CC1", "note": "[Example 96, 2-butyl-5,7-dimethyl-6-phenyl-3-{3-[4-(3-acetylaminophenyl)piperidin-1-yl]propyl}-3H-imidazo[4,5-b]pyridine]", "IC50": 60},
      {"molecule": "CC(=O)Nc1cccc(C2CCN(CCCn3c(-c4ccc(Cl)cc4)nc4cc(C#N)ccc43)CC2)c1", "note": "[Example 81, 2-(4-chlorophenyl)-1-{3-[4-(3-acetylaminophenyl)piperidin-1-yl]propyl}-5-cyano-1H-benzimidazole]", "IC50": 70},
      {"molecule": "CC(=O)Nc1cccc(C2CCN(CCCCCn3c(-c4ccccc4)nc4ccccc43)CC2)c1", "note": "[Example 7, 2-phenyl-1-{5-[4-(3-acetylaminophenyl)piperidin-1-yl]pentyl}-1H-benzimidazole]", "IC50": 74},
      {"molecule": "CCCCc1nc2cc(Br)c(C)nc2n1CCCN1CCC(c2cccc(NC(C)=O)c2)CC1", "note": "[Example 94, 6-bromo-2-butyl-5-methyl-3-{3-[4-(3-acetylaminophenyl)piperidin-1-yl]propyl}-3H-imidazo[4,5-b]pyridine]", "IC50": 3},
      {"molecule": "CC(=O)Nc1cccc(C2CCN(CCCn3c(C)nc4ccc(C)nc43)CC2)c1", "note": "[Example 91, 2,5-dimethyl-3-{3-[4-(3-acetylaminophenyl)piperidin-1-yl]propyl}-3H-imidazo[4,5-b]pyridine]", "IC50": 2800},
      {"molecule": "CC(=O)Nc1cccc(C2CCN(CCCn3c(-c4ccc(Cl)cc4)nc4ccccc43)CC2)c1", "note": "[Example 4, 2-(4-chlorophenyl)-1-{3-[4-(3-acetylaminophenyl)piperidin-1-yl]propyl}-1H-benzimidazole]", "IC50": 1},
      {"molecule": "CC(=O)Nc1cccc(C2CCN(CCCn3c(-c4cccc(C#N)c4)nc4ccccc43)CC2)c1", "note": "[Example 52, 2-(3-cyanophenyl)-1-{3-[4-(3-acetylaminophenyl)piperidin-1-yl]propyl}-1H-benzimidazole]", "IC50": 15},
      {"molecule": "CC(=O)Nc1cccc(C2CCN(CCCn3c(-c4ccc(Cl)cc4)nc4ccc(C(N)=O)cc43)CC2)c1", "note": "[Example 61, 2-(4-chlorophenyl)-1-{3-[4-(3-acetylaminophenyl)piperidin-1-yl]propyl}-6-carbamoyl-1H-benzimidazole]", "IC50": 199},
      {"molecule": "Cc1nc2ccccc2n1CCCN1CCC(c2cccc(NC(=O)C(C)C)c2)CC1", "note": "[Example 90, 2-methyl-1-{3-[4-(3-isobutyrylaminophenyl)piperidin-1-yl]propyl}-1H-benzimidazole]", "IC50": 80},
      {"molecule": "CC(=O)Nc1cccc(C2CCN(CCCn3c(-c4cccc(Cl)c4)nc4ccc(Cl)cc43)CC2)c1", "note": "[Example 35, 2-(3-chlorophenyl)-1-{3-[4-(3-acetylaminophenyl)piperidin-1-yl]propyl}-6-chloro-1H-benzimidazole]", "IC50": 7},
      {"molecule": "COc1cccc(-c2nc3ccccc3n2CCCN2CCC(c3cccc(NC(C)=O)c3)CC2)c1", "note": "[Example 18, 2-(3-methoxyphenyl)-1-{3-[4-(3-acetylaminophenyl)piperidin-1-yl]propyl}-1H-benzimidazole]", "IC50": 7},
      {"molecule": "COC(=O)c1cccc(-c2nc3ccccc3n2CCCN2CCC(c3cccc(NC(C)=O)c3)CC2)c1", "note": "[Example 76, 2-(3-methoxycarbonylphenyl)-1-{3-[4-(3-acetylaminophenyl)piperidin-1-yl]propyl}-1H-benzimidazole]", "IC50": 60},
      {"molecule": "CC(=O)Nc1cccc(C2CCN(CCCn3c(-c4ccccc4O)nc4ccccc43)CC2)c1", "note": "[Example 63, 2-(2-hydroxyphenyl)-1-{3-[4-(3-acetylaminophenyl)piperidin-1-yl]propyl}-1H-benzimidazole]", "IC50": 94},
      {"molecule": "CC(=O)Nc1cccc(C2CCN(CCCn3c(-c4ccc(Cl)cc4Cl)nc4ccccc43)CC2)c1", "note": "[Example 16, 2-(2,4-dichlorophenyl)-1-{3-[4-(3-acetylaminophenyl)piperidin-1-yl]propyl}-1H-benzimidazole]", "IC50": 3},
      {"molecule": "CC(=O)Nc1cccc(C2CCN(CCCn3c(Cc4ccccn4)nc4ccccc43)CC2)c1", "note": "[Example 125, 2-(pyridin-2-ylmethyl)-1-{3-[4-(3-acetamidophenyl)piperidin-1-yl]propyl}-1H-benzimidazole]", "IC50": 2},
      {"molecule": "CC(=O)Nc1cccc(C2CCN(CCCn3c(-c4ccc(Cl)cc4)nc4ccc(C#N)cc43)CC2)c1", "note": "[Example 82, 2-(4-chlorophenyl)-1-{3-[4-(3-acetylaminophenyl)piperidin-1-yl]propyl}-6-cyano-1H-benzimidazole]", "IC50": 70},
      {"molecule": "CC(=O)Nc1cccc(C2CCN(CCCn3c(-c4ccc(Br)o4)nc4ccccc43)CC2)c1", "note": "[Example 108, 2-(5-bromofuran-2-yl)-1-{3-[4-(3-acetylaminophenyl)piperidin-1-yl]propyl}-1H-benzimidazole]", "IC50": 3},
      {"molecule": "CC(=O)Nc1cccc(C2CCN(CCCn3c(C)nc4cc(Br)c(C)nc43)CC2)c1", "note": "[Example 92, 6-bromo-2,5-dimethyl-3-{3-[4-(3-acetylaminophenyl)piperidin-1-yl]propyl}-3H-imidazo[4,5-b]pyridine]", "IC50": 188},
      {"molecule": "O=C(Nc1cccc(C2CCN(CCCn3c(-c4ccc(Cl)cc4)nc4ccccc43)CC2)c1)c1ccccc1", "note": "[Example 65, 2-(4-chlorophenyl)-1-{3-[4-(3-benzoylaminophenyl)piperidin-1-yl]propyl}-1H-benzimidazole]", "IC50": 19},
      {"molecule": "CC(=O)Nc1cccc(C2CCN(CCCn3c(-c4ccc(Oc5ccccc5)cc4)nc4ccccc43)CC2)c1", "note": "[Example 47, 2-(4-phenoxyphenyl)-1-{3-[4-(3-acetylaminophenyl)piperidin-1-yl]propyl}-1H-benzimidazole]", "IC50": 42},
      {"molecule": "CC(=O)Nc1cccc(C2CCN(CCCn3c(-c4ccc(F)cc4)nc4cc(Cl)ccc43)CC2)c1", "note": "[Example 84, 2-(4-fluorophenyl)-1-{3-[4-(3-acetylaminophenyl)piperidin-1-yl]propyl}-5-chloro-1H-benzimidazole]", "IC50": 50},
      {"molecule": "CC(=O)Nc1cccc(C2CCN(CCCn3c(-c4ccccc4)nc4cc(Br)c(C)nc43)CC2)c1", "note": "[Example 68, 6-bromo-5-methyl-2-phenyl-3-{3-[4-(3-acetylaminophenyl)piperidin-1-yl]propyl}-3H-imidazo[4,5-b]pyridine]", "IC50": 110},
      {"molecule": "CC(=O)Nc1cccc(C2CCN(CCCn3c(-c4ccc(Cl)cc4)nc4ccc(Cl)cc43)CC2)c1", "note": "[Example 25, 2-(4-chlorophenyl)-1-{3-[4-(3-acetylaminophenyl)piperidin-1-yl]propyl}-6-chloro-1H-benzimidazole]", "IC50": 13}
    ]}
  ]
}
